# Reference: US12448369B2 (Edgewise Therapeutics, Inc., priority 2023, dated 2025)
# Legend:
# [1] = system: Porcine atria myofibrils (atrial myosin ATPase); experiment: Myofibril ATPase assay, porcine atria myofibrils; type: biochemical; settings: porcine atria myofibrils
# Description: (§1) Example 1. Myofibril ATPase Assay
# (§2) Myofibril ATPase assays are known in the art to be useful in evaluating small molecules for the treatment of HCM and other cardiac indications. Myosin ATPase activity is assessed by using a coupled reaction system, in which ADP generated by the myosin ATPase function is coupled to the disappearance of NADH through the pyruvate kinase/lactate dehydrogenase (PK-LDH) system. ATPase activity produces ADP, which is used as a substrate for PK to produce pyruvate and regenerate ATP. The pyruvate is then used as a substrate by LDH to oxidize NADH to NAD+. The rate of the reaction is monitored through the time-dependent disappearance of NADH using absorbance at 340 nm, which, when the couple system is in stoichiometric excess, is directly correlated to the ATPase activity of the myosin. Inhibition of ATPase activity by the assayed compounds is indicated by a reduced rate of NADH loss, relative to vehicle-treated controls, over the experimental time window. Activation of ATPase activity by the assayed compounds is indicated by an increased rate of NADH loss, relative to vehicle-treated controls, over the experimental time window. Rabbit Psoas, Porcine atria, and Porcine ventricle are the primary sources of myofibril material.
# (§3) Materials: The following stock solutions and reagents were used in the Myofibril ATPase Assay:
# (§4) Stock Solutions of pCa buffer. Combine PIPES, CaCl2, and EGTA solutions with water. Adjust pH to 7.0 and bring final volume to 100 mL.
# (§5) Buffer A & Buffer B. Prepare buffers A and B according to the table below.
# (§6) Myofibril ATPase Assay Procedure: BSA, ATP, NADH, PEP, and DTT solutions were thawed at room temperature, then transferred to ice. Pellet-frozen myofibrils were transferred with approximately twice the required volume into a sufficiently large tube and capped. Myofibrils were thawed by rolling in a water bath for approximately 15 min at room temperature and cooled on ice. Buffers A and B were prepared by adjusting volumes as necessary for required number of wells and stored on ice. 0.5 μL of the compounds to be assayed were added into wells. 25 μL of Buffer A was dispensed into the wells, followed by 25 μL of Buffer B. The wells were measured for absorbance at 340 nm, using a kinetic protocol in which the wells are read every 1.5-2 min for 75 min. Assay data analysis was performed using a python script that filtered the raw data to retain those points falling between a starting and ending time and between a maximum and minimum absorbance, then used the filtered time-domain 340 nm absorbance data in each well to calculate a slope via linear regression analysis in units of mAU/min. Compound slopes were normalized between 100% and 0% activity, where 100% represented the slope of wells containing only compound vehicle, and fit to a 4-parameter logistic model. In addition to the fit parameters, the EC25% values were calculated, relative to the 100% normalized value. Additionally, the Y125 values were calculated for compounds that increased myosin ATP-ase activity. Fit parameters, calculated effective concentrations, filtered raw data, and calculated slopes were exported, in addition to compound-specific graphs of normalized ATPase activity versus concentration in μM. Each value reported in Table 5, Table 6, and Table 7 is either a Y75 value or a Y125 value. Values without a double cross sign, ‡, are Y75 values, which reflect the concentration required to reduce myosin ATP-ase activity by 25% (e.g., Y-axis activity value is 75% of initial value), relative to myosin ATP-ase activity in the absence of exogenous compound.
# (§7) Myofibrils from various animals and tissue types were acquired from a variety of sources: rabbit psoas muscle was purchased from Pel-Freez Biologicals (Rogers, AR) and porcine cardiac muscle was purchased from Exemplar Genetics. All myofibrils were prepared using a method based upon those described in Herrmann et al. (1993) and summarized here. […]
# [2] = target: T1, Porcine ventricle myofibrils (ventricular myosin ATPase) (Sus scrofa, UniProt P79293); experiment: Myofibril ATPase assay, porcine ventricle myofibrils; type: biochemical, porcine (Yucatan minipigs); settings: porcine ventricle myofibrils
# T1 construct: Myofibrils from porcine cardiac muscle was isolated from the left ventricle of Yucatan minipigs; tissue Exemplar Genetics; host or cells: left ventricle of Yucatan minipigs, myofibrils prepared in house
# T1 sequence (P79293 whole entry): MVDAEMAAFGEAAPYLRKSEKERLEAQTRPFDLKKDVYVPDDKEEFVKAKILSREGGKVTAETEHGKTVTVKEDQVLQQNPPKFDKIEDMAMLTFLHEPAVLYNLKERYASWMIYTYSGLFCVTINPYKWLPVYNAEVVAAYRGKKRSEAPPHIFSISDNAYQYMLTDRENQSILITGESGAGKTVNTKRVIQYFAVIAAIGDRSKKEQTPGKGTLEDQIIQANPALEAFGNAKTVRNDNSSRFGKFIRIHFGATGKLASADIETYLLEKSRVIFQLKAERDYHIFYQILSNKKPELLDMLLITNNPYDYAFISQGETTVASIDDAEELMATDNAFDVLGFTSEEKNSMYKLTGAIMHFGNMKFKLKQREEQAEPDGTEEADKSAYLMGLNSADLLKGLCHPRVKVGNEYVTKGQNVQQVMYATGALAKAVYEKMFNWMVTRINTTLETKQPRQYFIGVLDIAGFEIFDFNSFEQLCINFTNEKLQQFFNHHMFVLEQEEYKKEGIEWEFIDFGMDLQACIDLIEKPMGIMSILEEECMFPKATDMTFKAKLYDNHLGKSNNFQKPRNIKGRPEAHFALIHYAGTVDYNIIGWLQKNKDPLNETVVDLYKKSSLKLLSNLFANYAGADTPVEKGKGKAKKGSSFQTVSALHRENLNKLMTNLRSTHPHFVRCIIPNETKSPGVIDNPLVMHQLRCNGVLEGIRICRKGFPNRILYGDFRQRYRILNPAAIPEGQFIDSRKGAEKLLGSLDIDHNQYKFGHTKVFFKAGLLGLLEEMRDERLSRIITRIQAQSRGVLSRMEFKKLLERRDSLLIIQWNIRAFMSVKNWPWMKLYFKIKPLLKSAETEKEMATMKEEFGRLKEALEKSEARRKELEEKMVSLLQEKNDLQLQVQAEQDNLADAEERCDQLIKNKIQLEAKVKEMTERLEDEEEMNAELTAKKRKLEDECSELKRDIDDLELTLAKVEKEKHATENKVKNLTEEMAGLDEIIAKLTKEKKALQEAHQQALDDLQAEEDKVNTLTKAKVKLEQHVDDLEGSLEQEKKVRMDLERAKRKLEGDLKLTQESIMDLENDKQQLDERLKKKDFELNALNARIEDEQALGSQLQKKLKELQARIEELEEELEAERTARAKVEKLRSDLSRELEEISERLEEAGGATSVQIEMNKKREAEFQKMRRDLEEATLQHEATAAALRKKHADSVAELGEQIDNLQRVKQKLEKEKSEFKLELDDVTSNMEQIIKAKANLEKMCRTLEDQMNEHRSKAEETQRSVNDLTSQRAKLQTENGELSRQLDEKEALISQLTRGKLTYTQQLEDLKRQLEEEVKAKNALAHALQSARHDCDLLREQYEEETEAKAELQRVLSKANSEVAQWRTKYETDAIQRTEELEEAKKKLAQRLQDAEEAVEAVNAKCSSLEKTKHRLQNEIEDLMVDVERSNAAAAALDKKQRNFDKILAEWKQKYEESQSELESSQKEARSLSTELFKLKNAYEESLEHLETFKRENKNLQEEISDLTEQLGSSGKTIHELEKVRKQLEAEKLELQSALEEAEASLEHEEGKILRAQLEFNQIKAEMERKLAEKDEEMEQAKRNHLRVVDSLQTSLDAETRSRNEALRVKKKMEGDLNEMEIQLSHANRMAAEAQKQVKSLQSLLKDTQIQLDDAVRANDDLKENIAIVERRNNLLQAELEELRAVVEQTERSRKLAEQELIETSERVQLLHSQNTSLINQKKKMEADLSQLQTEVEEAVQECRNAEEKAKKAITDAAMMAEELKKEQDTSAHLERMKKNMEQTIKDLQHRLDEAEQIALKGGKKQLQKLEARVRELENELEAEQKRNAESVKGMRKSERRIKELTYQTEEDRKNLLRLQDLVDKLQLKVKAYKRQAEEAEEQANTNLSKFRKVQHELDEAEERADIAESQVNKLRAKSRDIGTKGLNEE
# Description: as §1, §2, §3, §4, §5, §6
# Cardiac Myofibril Isolation:
# Myofibrils from porcine cardiac muscle was isolated from the left ventricle of Yucatan minipigs. Myofibrils were prepared using a method based upon those described in Herrmann et al. (1993) and summarized here. […]
# [3] = system: Rabbit Psoas myofibrils (skeletal myosin ATPase); experiment: Myofibril ATPase assay, rabbit psoas (skeletal) myofibrils; type: biochemical; settings: rabbit psoas myofibrils
# Description: as §1, §2, §3, §4, §5, §6
# Skeletal Myofibril Isolation:
# as §7
# [4] = Y75 value (75% activity relative to no compound)
Structure (SMILES),Atrial EC25 ([1]; Y75 value (no ‡ mark)) [nM],Ventricular EC25 ([2]; Y75 value (no ‡ mark)) [nM],Skeletal EC25 ([3]; Y75 value (no ‡ mark)) [nM],"Atrial EC25 [1, 4] [nM]",Ventricular EC25 ([2]; Y75 value) [nM],Skeletal EC25 ([3]; Y75 value) [nM]
"C[C@H](NC(=O)[C@H](C)c1cc2c(F)c(F)ccc2[nH]c1=O)c1ccc(F)cc1F (single isomer, unassigned) [compound 111]",100,100000,110,–,–,–
"Cc1nc(C#N)cnc1[C@@H](C)NC(=O)Cc1c(C)c2nc(C(F)(F)F)ccc2[nH]c1=O (single isomer, unassigned) [compound 138]",–,–,–,350,1170,2850
"Cc1nc(C#N)cnc1[C@H](C)NC(=O)Cc1c(C)c2nc(C(F)(F)F)ccc2[nH]c1=O (single isomer, unassigned) [compound 139]",–,–,–,80,180,20
"Cc1nccc2[nH]c(=O)c(CC(=O)N[C@@H]3COc4cc(C#N)cc(F)c43)c(C)c12 (single isomer, unassigned) [compound 177]",–,–,–,60,90,20
"Cc1nccc2[nH]c(=O)c(CC(=O)N[C@H]3COc4cc(C#N)cc(F)c43)c(C)c12 (single isomer, unassigned) [compound 178]",–,–,–,4550,20240,1840
"Cc1nccc2[nH]c(=O)c([C@@H](C)C(=O)N[C@H](C)c3ccc(C#N)cc3F)c(C)c12 (single isomer, unassigned) [compound 183]",–,–,–,330,6370,750
"Cc1nccc2[nH]c(=O)c([C@H](C)C(=O)N[C@H](C)c3ccc(C#N)cc3F)c(C)c12 (single isomer, unassigned) [compound 184]",–,–,–,100000,100000,100000
"Cc1nccc2[nH]c(=O)c(CC(=O)N[C@@H]3c4c(F)cc(F)cc4OC3(C)C)c(C)c12 (single isomer, unassigned) [compound 190]",–,–,–,8110,45620,100000
"Cc1nccc2[nH]c(=O)c([C@@H](C)C(=O)N[C@H](C)c3ncc(C#N)cc3F)c(C)c12 (single isomer, unassigned) [compound 191]",–,–,–,1730,100000,4040
"Cc1nccc2[nH]c(=O)c([C@@H](C)C(=O)N[C@@H](C)c3ncc(C#N)cc3F)c(C)c12 (single isomer, unassigned) [compound 193]",–,–,–,470,5940,750
"Cc1nccc2[nH]c(=O)c([C@H](C)C(=O)N[C@@H](C)c3ccc(C#N)cc3F)c(C)c12 (single isomer, unassigned) [compound 196]",–,–,–,110,4230,180
"Cc1nccc2[nH]c(=O)c(CC(=O)N[C@@H]3CCc4cc(C#N)cc(F)c43)c(C)c12 (single isomer, unassigned) [compound 197]",–,–,–,2800,49430,4230
"Cc1nccc2[nH]c(=O)c(CC(=O)N[C@H]3CCc4cc(C#N)cc(F)c43)c(C)c12 (single isomer, unassigned) [compound 198]",–,–,–,310,180,20
"Cc1nccc2[nH]c(=O)c(CC(=O)N[C@@H](C)c3ccc(S(C)(=O)=O)cc3F)c(C)c12 (single isomer, unassigned) [compound 207]",–,–,–,100000,100000,1320

# Results, then the molecule that gave them:
Atrial EC25 ([1]; Y75 value (no ‡ mark)) [nM],Ventricular EC25 ([2]; Y75 value (no ‡ mark)) [nM],Skeletal EC25 ([3]; Y75 value (no ‡ mark)) [nM],"Atrial EC25 [1, 4] [nM]",Ventricular EC25 ([2]; Y75 value) [nM],Skeletal EC25 ([3]; Y75 value) [nM],Structure (SMILES)
520,42600,100000,–,–,–,"C[C@H](NC(=O)[C@@H](C)c1cc2c(F)c(F)ccc2[nH]c1=O)c1ccc(F)cc1F (single isomer, unassigned) [compound 110]"
60,310,30,–,–,–,"Cc1c([C@H](C)C(=O)N[C@@H](C)c2ccc(F)cc2F)c(=O)[nH]c2ccc(F)c(F)c12 (single isomer, unassigned) [compound 112]"
–,–,–,220,300,20,"Cc1c([C@@H](C)C(=O)N[C@@H](C)c2ccc(C#N)cc2F)c(=O)[nH]c2ccnc(C#N)c12 (single isomer, unassigned) [compound 173]"
–,–,–,80,550,80,"Cc1c([C@H](C)C(=O)N[C@@H](C)c2ccc(C#N)cc2F)c(=O)[nH]c2ccnc(C#N)c12 (single isomer, unassigned) [compound 174]"
–,–,–,310,2510,90,"Cc1nccc2[nH]c(=O)c(CC(=O)N[C@@H]3CNc4cc(F)cc(F)c43)c(C)c12 (single isomer, unassigned) [compound 181]"
–,–,–,8600,35910,1760,"Cc1nccc2[nH]c(=O)c(CC(=O)N[C@H]3CNc4cc(F)cc(F)c43)c(C)c12 (single isomer, unassigned) [compound 182]"
–,–,–,110,1360,50,"Cc1c(CC(=O)N[C@H]2c3c(F)cc(F)cc3OC2(C)C)c(=O)[nH]c2ccnc(C#N)c12 (single isomer, unassigned) [compound 187]"
–,–,–,2430,39560,26500,"Cc1c(CC(=O)N[C@@H]2c3c(F)cc(F)cc3OC2(C)C)c(=O)[nH]c2ccnc(C#N)c12 (single isomer, unassigned) [compound 188]"
–,–,–,1220,13140,870,"Cc1nccc2[nH]c(=O)c(CC(=O)N[C@H]3c4c(F)cc(F)cc4OC3(C)C)c(C)c12 (single isomer, unassigned) [compound 189]"
–,–,–,590,14650,550,"Cc1nccc2[nH]c(=O)c([C@H](C)C(=O)N[C@H](C)c3ncc(C#N)cc3F)c(C)c12 (single isomer, unassigned) [compound 192]"
–,–,–,5870,100000,1220,"Cc1nccc2[nH]c(=O)c([C@H](C)C(=O)N[C@@H](C)c3ncc(C#N)cc3F)c(C)c12 (single isomer, unassigned) [compound 194]"
–,–,–,300,2970,110,"Cc1nccc2[nH]c(=O)c([C@@H](C)C(=O)N[C@@H](C)c3ccc(C#N)cc3F)c(C)c12 (single isomer, unassigned) [compound 195]"
–,–,–,2160,9680,150,"Cc1c(CC(=O)N[C@H](C)c2ccc(C#N)cc2F)c(=O)[nH]c2ccc(C(F)(F)F)nc12 (single isomer, unassigned) [compound 208]"
